Reference: patent US20220054465A1, “(PYRIDIN-2-YL)AMINE DERIVATIVES AS TGF-BETA R1 (ALK5) INHIBITORS FOR THE TREATMENT OF CANCER” (Nexys Therapeutics, Inc., priority 2018, published 2022)

Tested on: HEK-Blue TGFβ cell
Experiment: HEK-Blue TGFβ cellular reporter gene assay (SEAP readout)
Type: cell-based
Conditions: HEK-Blue TGFβ cells stimulated with TGF-β, 22-23 h incubation, SEAP read at 630 nm
Method: HEK-Blue TGFβ Cellular Reporter Gene Assay:
HEK-Blue TGFβ cell was purchased from Invivogen. Cell suspension of 2.5×10^5 cells/ml was prepared using Test Medium (DMEM containing 0.5% v/v heat-inactivated FBS). TGF-β working solution (6 ng/ml) was obtained through diluting TGF-β stock solution (10 μg/ml) by Test Medium before use. Eight different concentrations of all compounds were obtained by 3× gradient dilution method using TGF-β working solution. Add 100 μl of Test Medium (Vehicle) or test article or TGF-β working solution per well of a flat-bottom 96-well plate. Add 100 μl of HEK-Blue TGF-β cell suspension per well. Incubate the plate at 37° C. in a CO2 incubator for 22-23 h. Add 150 μl of resuspended QUANTI-Blue per well of a new flat-bottom 96-well plate. Add 30 μl of induced HEK-Blue TGF-β cells supernatant. Avoid pipetting at the bottom of wells. Incubate the plate at 37° C. incubator for 30-40 min. Determine secreted embryonic alkaline phosphatase (SEAP) levels using a spectrophotometer at 630 nm.
The inhibition was calculated using the equation: […]

| SMILES | IC50 |
| --- | --- |
| Cc1cc(Nc2cc(Oc3cn(C(C)C)nc3C3CCOCC3)ccn2)cc(C(C)(C)C(=O)O)c1 [Example 167] | 620 nM |
| Cc1cc(Nc2cc(Oc3cn(C4CCC4)nc3-c3ccccc3)ccn2)cc(C(C)(C)C(=O)O)c1 [Example 172] | 120 nM |
| Cc1ccc(Oc2ccnc(Nc3cccc(CCc4nn[nH]n4)c3)c2)c(C(F)(F)F)n1 [Example 58] | 150 nM |
| Cc1cc(Cc2nn[nH]n2)cc(Nc2cc(Oc3cn(C4CC4)nc3C3CCOCC3)ccn2)c1 [Example 194] | 4140 nM |
| Cc1cc(Oc2ccnc(Nc3ccc(F)c(CCC(=O)O)c3)c2)c(-c2ccccn2)nc1C [Example 4] | 200 nM |
| Cc1cc(Oc2ccnc(Nc3cccc(CCc4nnn[nH]4)n3)c2)c(-c2ccccn2)nc1C [Example 26] | 350 nM |
| Cc1cc(Oc2ccnc(Nc3cccc(CCc4nnn[nH]4)c3F)c2)c(-c2ccccn2)nc1C [Example 25] | 640 nM |
| CC(C)(Cc1cccc(Nc2cc(Oc3cn(C4CC4)nc3C3CCOCC3)ccn2)c1)C(=O)O [Example 160] | 210 nM |
| COc1cc(CCc2nn[nH]n2)cc(Nc2cc(Oc3cc(C)c(C)nc3-c3ccccn3)ccn2)c1 [Example 178] | 210 nM |
| Cc1ccc(Oc2ccnc(Nc3cccc(C(C)(C)C(=O)O)c3)c2)c(-c2ccc(C#N)cc2)n1 [Example 97] | 200 nM |
| Cc1ccc(Oc2ccnc(Nc3cccc(C(C)(C)C(=O)O)c3)c2)c(-c2cccc(Cl)c2)n1 [Example 78] | 110 nM |
| Cc1cc(Oc2ccnc(Nc3cccc(Cc4nnn(CC(=O)O)n4)c3)c2)c(-c2ccccn2)nc1C [Example 34A, 2-(5-(3-((4-((5,6-dimethyl-[2,2′-bipyridin]-3-yl)oxy)pyridin-2-yl)amino)benzyl)-2H-tetrazol-2-yl)acetic acid] | 12700 nM |
| CCc1cc(Oc2ccnc(Nc3cccc(C(C)(C)C(=O)O)c3)c2)c(-c2ccccc2)nc1C [Example 100] | 2590 nM |
| Cc1nc(-c2ccccc2)ccc1Oc1ccnc(Nc2cccc(C(C)(C)C(=O)O)c2)c1 [Example 75] | 8120 nM |
| Cc1cc(Nc2cc(Oc3cc(C)c(C)nc3-c3ccccn3)ccn2)cc(C(C)(C)C(=O)O)c1 [Example 134] | 78 nM |
| Cc1ccc(Oc2ccnc(Nc3cccc(C(C)(C)C(=O)O)c3)c2)c(-c2ccccn2)n1 [Example 72, 2-methyl-2-(3-((4-((6-methyl-[2,2′-bipyridin]-3-yl)oxy)pyridin-2-yl)amino)phenyl)propanoic acid] | 180 nM |
| Cc1cc(Oc2ccnc(Nc3ccc(Cl)c(CCc4nnn[nH]4)c3)c2)c(-c2ccccn2)nc1C [Example 20] | 120 nM |
| Cc1ccc(Oc2ccnc(Nc3cccc(C(C)(C)c4nnn[nH]4)c3)c2)c(-c2ccccc2)n1 [Example 60] | 79 nM |
| Cc1cc(Oc2ccnc(Nc3cccc(CC(C)(C)C(=O)O)c3)c2)c(-c2ccccn2)nc1C [Example 137] | 71 nM |
| CCc1nc(-c2ccccn2)c(Oc2ccnc(Nc3cccc(CCC(=O)O)c3)c2)cc1C [Example 139] | 42 nM |
| Cc1cc(Oc2ccnc(Nc3cc(CCC(=O)O)ccc3F)c2)c(-c2ccccn2)nc1C [Example 6] | 160 nM |
| Cc1ccc(Oc2ccnc(Nc3cccc(C4(C(=O)O)CC4)c3)c2)c(-c2ccccc2)n1 [Example 77, 1-(3-((4-((6-methyl-2-phenylpyridin-3-yl)oxy)pyridin-2-yl)amino)phenyl)cyclopropane-1-carboxylic acid] | 80 nM |

| SMILES | IC50 |
| --- | --- |
| Cc1cc(Oc2ccnc(Nc3cccc(-c4nnn[nH]4)c3)c2)c(-c2ccccn2)nc1C [Example 13] | 1080 nM |
| CCc1ccc(Oc2ccnc(Nc3cccc(C(C)(C)C(=O)O)c3)c2)c(-c2ccccn2)n1 [Example 84] | 55 nM |
| Cc1cc(Oc2ccnc(Nc3cccc(CC(C)(C)c4nn[nH]n4)c3)c2)c(-c2ccccn2)nc1C [Example 176] | 150 nM |
| Cc1cc(Oc2ccnc(Nc3ccc(-c4nnn[nH]4)cc3)c2)c(-c2ccccn2)nc1C [Example 14] | > 10000 nM |
| Cc1ccc(Oc2ccnc(Nc3cc(CCC(=O)O)ccc3F)c2)c(C)n1 [Example 39] | 260 nM |
| Cc1cc(Oc2ccnc(Nc3cccc(OCC(=O)O)c3)c2)c(-c2ccccn2)nc1C [Example 76] | > 10000 nM |
| Cc1cc(Oc2ccnc(Nc3cccc(C(C)(C)c4nnn[nH]4)c3)c2)c(-c2ccccn2)nc1C [Example 18] | 180 nM |
| CC(C)(C(=O)O)c1cccc(Nc2cc(Oc3cn(C4COC4)nc3-c3ccccc3)ccn2)c1 [Example 126] | 200 nM |
| CCc1nc(C)c(Oc2ccnc(Nc3cc(C)cc(CCC(=O)O)c3)c2)cc1C [Example 150] | 27 nM |
| Cc1cccc(-c2nc(C)ccc2Oc2ccnc(Nc3cccc(CCc4nn[nH]n4)c3)c2)n1 [Example 63] | 720 nM |
| CCc1nc(C)c(Oc2ccnc(Nc3cccc(CC4(C(=O)O)COC4)c3)c2)cc1C [Example 174, 3-(3-((4-((6-ethyl-2,5-dimethylpyridin-3-yl)oxy)pyridin-2-yl)amino)benzyl)oxetane-3-carboxylic acid] | 57 nM |
| O=C(O)c1cc(Nc2cc(Oc3cn(C4CC4)nc3C3CCOCC3)ccn2)ccn1 [Example 117] | > 10000 nM |
| CC(C)n1cc(Oc2ccnc(Nc3cccc(C(C)(C)C(=O)O)c3)c2)c(-c2ccccc2)n1 [Example 124] | 190 nM |
| CC(C)(C(=O)O)c1cccc(Nc2cc(Oc3cn(C4CC4)nc3-c3ccccc3)ccn2)c1 [Example 119] | 13 nM |
| Cc1ccc(Nc2cc(Oc3cc(C)c(C)nc3-c3ccccn3)ccn2)cc1CCc1nnn[nH]1 [Example 28] | 50 nM |
| Cc1ccc(Oc2ccnc(Nc3ccc(F)c(CCC(=O)O)c3)c2)c(C)n1 [Example 36, 3-(5-((4-((2,6-dimethylpyridin-3-yl)oxy)pyridin-2-yl)amino)-2-fluorophenyl)propanoic acid] | 180 nM |
| Cc1cc(Oc2ccnc(Nc3ccc(F)c(CCc4nnn[nH]4)c3)c2)c(-c2ccccn2)nc1C [Example 21] | 160 nM |
| Cc1ccc(Oc2ccnc(Nc3ccc(Cl)c(CCc4nn[nH]n4)c3)c2)c(C)n1 [Example 50] | 630 nM |
| Cc1nc(-c2ccccn2)c(Oc2ccnc(Nc3cccc(CCc4nn[nH]n4)c3)c2)cc1C1CC1 [Example 182] | 640 nM |
| O=C(O)CCc1cccc(Nc2cc(Oc3cn(C4CCC4)nc3-c3ccccc3)ccn2)c1 [Example 173] | 26 nM |
| CC(C)(Cc1cccc(Nc2cc(Oc3cn(C4CC4)nc3-c3ccccc3)ccn2)c1)C(=O)O [Example 168] | 210 nM |
| Cc1cc(Oc2ccnc(Nc3ccc(Cc4nnn(CC(=O)O)n4)cc3)c2)c(-c2ccccn2)nc1C [Example 35A] | > 10000 nM |

| SMILES | IC50 |
| --- | --- |
| Cn1cc(Oc2ccnc(Nc3cccc(C(C)(C)C(=O)O)c3)c2)c(-c2ccccc2)n1 [Example 120] | 50 nM |
| CCc1nc(-c2ccccn2)c(Oc2ccnc(Nc3cccc(CCc4nn[nH]n4)c3)c2)cc1C [Example 185] | 39 nM |
| Cc1cc(CC(C)(C)C(=O)O)cc(Nc2cc(Oc3ccc(C)nc3-c3ccccc3)ccn2)c1 [Example 141] | 12 nM |
| Cc1ccc(Oc2ccnc(Nc3cccc(CCC(=O)O)c3)c2)c(C#N)n1 [Example 43] | 3810 nM |
| Cc1cc(Oc2ccnc(Nc3cc(CCC(=O)O)ccn3)c2)c(-c2ccccn2)nc1C [Example 8] | 590 nM |
| CCc1ccc(Oc2ccnc(Nc3cccc(CCC(=O)O)c3)c2)c(C)n1 [Example 146] | 21 nM |
| Cc1nc(-c2ccccc2)c(Oc2ccnc(Nc3cccc(C(C)(C)C(=O)O)c3)c2)cc1C(C)(C)O [Example 103] | > 10000 nM |
| Cc1nc(-c2ccccc2)c(Oc2ccnc(Nc3cccc(C(C)(C)C(=O)O)c3)c2)cc1C1CC1 [Example 101] | 3310 nM |
| Cc1ccc(Oc2ccnc(Nc3cccc(C(C)(C)C(=O)O)c3)c2)c(-c2ccc(F)cc2)n1 [Example 91] | 18 nM |
| O=C(O)CCc1cccc(Nc2cc(Oc3cn(C4CC4)nc3-c3ccccc3)ccn2)c1 [Example 171] | 16 nM |
| Cc1ccc(Oc2ccnc(Nc3cccc(CCc4nn[nH]n4)c3)c2)c(-c2ncccc2C)n1 [Example 64] | 2600 nM |
| Cc1ccc(Nc2cc(Oc3cn(C4CC4)nc3C3CCOCC3)ccn2)cc1C(=O)O [Example 114] | 2540 nM |
| Cc1cc(Oc2ccnc(Nc3ccn(CCc4nn[nH]n4)n3)c2)c(-c2ccccn2)nc1C [Example 32] | 3710 nM |
| Cc1cc(Oc2ccnc(Nc3ccc(Cc4nnn[nH]4)cc3)c2)c(-c2ccccn2)nc1C [Example 15] | 1840 nM |
| CC(C)(C(=O)O)c1cccc(Nc2cc(Oc3cn(CC(F)F)nc3-c3ccccc3)ccn2)c1 [Example 123] | 180 nM |
| Cc1cccc(-c2nc(C)ccc2Oc2ccnc(Nc3cccc(C(C)(C)C(=O)O)c3)c2)c1 [Example 93] | 120 nM |
| Cc1ccc(-c2nc(C)ccc2Oc2ccnc(Nc3cccc(C(C)(C)C(=O)O)c3)c2)cc1 [Example 94] | 64 nM |
| Cc1nc(-c2ccccc2)c(Oc2ccnc(Nc3cccc(C(C)(C)C(=O)O)c3)c2)cc1Cl [Example 99] | 23 nM |
| Cc1cc(Oc2ccnc(Nc3cccc(CCC(=O)O)n3)c2)c(-c2ccccn2)nc1C [Example 7] | 170 nM |
| CC(C)(C(=O)O)c1ccc(Nc2cc(Oc3cn(C4CC4)nc3C3CCOCC3)ccn2)cc1 [Example 113] | 510 nM |
| CCc1nc(C)c(Oc2ccnc(Nc3cc(C)cc(CC(C)(C)C(=O)O)c3)c2)cc1C [Example 152] | 20 nM |
| Cc1ccc(Oc2ccnc(Nc3ccc(C(F)(F)F)c(CCc4nn[nH]n4)c3)c2)c(-c2ccccn2)n1 [Example 65] | 520 nM |
